Seven compounds from ChEMBL document CHEMBL1126611, “Modulation of leukocyte genetic expression by novel purine nucleoside analogues. A new approach to antitumor and antiviral agents” (1993) can be followed below.

SMILES strings stand for the structures.

The test system of assay [1] is Mus musculus. The assay is described as follows: Activity against Forest virus infection in mice after oral administration of 200 mg/kg. The format is functional.
The test system of assay [2] is Mus musculus. The assay is described as follows: Mean survival time of Forest virus infected mice that died; survivors lived through 21 days after intraperitoneal administration of 50 mg/kg. The format is functional.
Assay [3] is filed under the species Mus musculus. The assay is described as follows: Activity against Forest virus infection in mice. The assay is classed as functional.
Assay [4] is filed under the species Mus musculus. As to the kind of experiment: Activity against San Angelo virus infection in mice. The format is functional.
The test system of assay [5] is Mus musculus. As to the kind of experiment: Activity against San Angelo virus infection in mice after intraperitoneal administration of 50 mg/kg. The assay is classed as functional.
Assay [6] deals with Mus musculus. As to the kind of experiment: Activity against Forest virus infection in mice after intraperitoneal administration of 50 mg/kg. The assay is classed as functional.
Assay [7] relates to Mus musculus. The assay is described as follows: Activity against San Angelo virus infection in mice after intraperitoneal administration of 25 mg/kg. The assay is classed as functional.
For assay [8], the species on record is Mus musculus. The assay is described as follows: Inhibition of […] murine melanoma artificial metastasis in lungs of C57BL/6j mice expressed as average of B16-F10 colonies in lungs from 6 or 7 mice on 18-19th days (no. of mice = 7). The assay is classed as functional, Lung.
Assay [9] deals with Mus musculus. As to the kind of experiment: Mean survival time of San Angelo virus infected mice that died; survivors lived through 21 days after intraperitoneal administration of 25 mg/kg. The assay is classed as functional.
For assay [10], the system named is Mus musculus. The assay is described as follows: Mean survival time of San Angelo virus infected mice that died; survivors lived through 21 days after intraperitoneal administration of 50 mg/kg. The assay is classed as functional.
Assay [11] concerns Mus musculus. As to the kind of experiment: Activity against San Angelo virus infection in mice after intraperitoneal administration of 100 mg/kg. The format is functional.
Assay [12] concerns Mus musculus. As to the kind of experiment: Mean survival time of San Angelo virus infected mice that died; survivors lived through 21 days after intraperitoneal administration of 100 mg/kg. The format is functional.
The species named for assay [13] is Mus musculus. As to the kind of experiment: Mean survival time of Forest virus infected mice that died; survivors lived through 21 days. The format is functional.
Assay [14] relates to Mus musculus. As to the kind of experiment: Mean survival time of Forest virus infected mice that died; survivors lived through 21 days after intraperitoneal administration of 100 mg/kg. The assay is classed as functional.
Assay [15] concerns Mus musculus. As to the kind of experiment: Mean survival time of Forest virus infected mice that died; survivors lived through 21 days after oral administration of 200 mg/kg. The format is functional.
For assay [16], the system named is Mus musculus. The assay is described as follows: Activity against Forest virus infection in mice after intraperitoneal administration of 100 mg/kg. The format is functional.
For assay [17], the species on record is Mus musculus. As to the kind of experiment: Inhibition of […] murine melanoma artificial metastasis in lungs of C57BL/6j mice expressed as average of B16-F10 colonies in lungs from 6 or 7 mice on 17th day (no. of mice = 6). The assay is classed as functional, Lung.
The species entered for assay [18] is Mus musculus. The assay is described as follows: Mean survival time of San Angelo virus infected mice that died; survivors lived through 21 days. The assay is classed as functional.
The next assay concerns Rattus norvegicus. As to the kind of experiment: Compound at a dose 100 mg/kg was administered to rat and Percent survivors after coronavirus infection in suckling rats. The assay is classed as functional.
In assay [19] the test system is Mus musculus. As to the kind of experiment: Activity against Forest virus infection in mice after intraperitoneal administration of 200 mg/kg. The assay is classed as functional.
The test system of assay [20] is Mus musculus. The assay is described as follows: Mean survival time of Forest virus infected mice that died; survivors lived through 21 days after intraperitoneal administration of 200 mg/kg. The assay is classed as functional.
The species entered for assay [21] is Mus musculus. The assay is described as follows: Mean survival time mice that died; survivors lived through 21 days. The assay is classed as functional.
Assay [22] relates to Mus musculus. As to the kind of experiment: Activity against San Angelo virus infection in mice after intraperitoneal administration of 10 mg/kg. The assay is classed as functional.
Assay [23] concerns Mus musculus. The assay is described as follows: Mean survival time of San Angelo virus infected mice that died; survivors lived through 21 days after intraperitoneal administration of 10 mg/kg. The assay is classed as functional.
Assay [24] relates to Mus musculus. The assay is described as follows: Activity against Forest virus infection in mice, ip. The format is functional.
Assay [25] relates to Mus musculus. As to the kind of experiment: Mean survival time Forest virus infectedof mice that died; survivors lived through 21 days after intraperitoneal administration of 25 mg/kg. The format is functional.
In assay [26] the test system is Mus musculus. The assay is described as follows: Activity against Forest virus infection in mice after intraperitoneal administration of 25 mg/kg. The format is functional.

Consider `Nc1nc2c(ccn2[C@@H]2O[C@H](CO)[C@@H](O)[C@H]2O)c(=O)[nH]1`, for which the Survivors turned out to be 83% in the assay on Mus musculus [1]; 8% in the assay filed under Mus musculus [3]; 33% in the assay filed under Mus musculus [4]; 100% in the assay on Mus musculus [5]; 83% with Mus musculus [6]; 92% in the assay on Mus musculus [7]. In addition, the Survivors in the assay with Mus musculus [11] came out at 100%; with Mus musculus [16] it was 83%. The Mean survival in the assay with Mus musculus [2] is 6 days; in the assay with Mus musculus [9], 9 days; with Mus musculus [10] it was >21 days; in the assay with Mus musculus [12] it was >21 days; in the assay filed under Mus musculus [13] it was 7.4 days; in the assay with Mus musculus [14] it was 6.5 days. Further, the results for the Mean survival in the assay on Mus musculus [15] and in the assay listed under Mus musculus [18] were 8 days and 7.9 days, respectively. In addition, the Mean in the assay filed under Mus musculus [8] came to 0.17; in the assay listed under Mus musculus [17] it was 0.14.
Regarding `N#Cc1cn(C2O[C@H](CO)[C@@H](O)[C@H]2O)c2nc(N)nc(O)c12` (some centres undefined), the Survivors in the assay listed under Mus musculus [3] is reported as 8%; with Mus musculus [16] it was 50%. In addition, the Mean survival in the assay filed under Mus musculus [13] turned out to be 6 days; in the assay with Mus musculus [14], 8.5 days.
In the case of `Cn1c(=O)n(C2O[C@H](CO)[C@@H](O)[C@H]2O)c2nc(N)nc(O)c21` (some centres undefined), the Survivors in the assay on Rattus norvegicus was 75%.
On to `Nc1nc(O)c2c(C(=O)O)cn(C3O[C@H](CO)[C@@H](O)[C@H]3O)c2n1` (some centres undefined), for which the Survivors in the assay filed under Mus musculus [3] is reported as 17%; in the assay with Mus musculus [19], 33%; with Mus musculus [16], 8%. Moreover, the Mean survival came to 6 days in the assay on Mus musculus [20], 6.8 days in the assay listed under Mus musculus [13] and 8.1 days in the assay on Mus musculus [14].
`Nc1nc(=O)c2sc(=O)n([C@@H]3O[C@H](CO)[C@@H](O)[C@H]3O)c2[nH]1` [ISATORIBINE]: the Survivors in the assay with Rattus norvegicus came to 83%.
The same measure, in the same setting: with `Cn1c(=S)n(C2O[C@H](CO)[C@@H](O)[C@H]2O)c2nc(N)nc(O)c21` (some centres undefined) the figure was 58%.
For `Nc1nc(O)c2cc(Cl)n(C3O[C@H](CO)[C@@H](O)[C@H]3O)c2n1` (some centres undefined), the Mean survival was 7 days in the assay filed under Mus musculus [21]; 8 days with Mus musculus [23]; >21 days in the assay with Mus musculus [2]; 6 days in the assay on Mus musculus [25]; >21 days in the assay on Mus musculus [9]; >21 days with Mus musculus [10]. The Mean survival worked out at 6.5 days in the assay filed under Mus musculus [13], 7 days in the assay with Mus musculus [14] and 7.2 days in the assay filed under Mus musculus [18]. Besides, the Survivors with Mus musculus [22] is reported as 58%; in the assay with Rattus norvegicus, 92%; with Mus musculus [24], 8%; in the assay filed under Mus musculus [4], 18%; with Mus musculus [5], 100%; with Mus musculus [6], 100%. Further, the values for the Survivors in the assay with Mus musculus [7], in the assay on Mus musculus [26] and in the assay on Mus musculus [16] were 100%, 92% and 92%, respectively.
